Source: US7371766B2, “Curcumin analogs with anti-tumor and anti-angiogenic properties” (Emory University, priority 1999, dated 2008)
Where two headings read alike, the source gives them in different places.

Columns and labels:
[1] = system: MDA-MB-231; experiment: Emory Laboratory Cell Screen, Neutral Red, MDA-MB-231; format: cell-based, human; details: Homo sapiens, MDA-MB-231, Breast Cancer, 72 hours, read-out: Median Growth Inhibitory Concentration (GI50)
Description: (§1) Human tumor and endothelial cell lines were treated for 72 hours with compounds at a minimum of four concentrations between 0.1 μM-40 μM. Neutral Red assay was used to calculate cell viability.

[2] = system: Tissue Factor (TF) production by human prostate cancer cell line PC-3; experiment: TF ELISA, PC-3; format: cell-based; details: 20 μM
Description: (§2) Cells were treated with 1% Triton X-100 in PBS and left overnight at 4° C. overnight to solubilize TF. […] IMUBIND Tissue Factor ELISA Kit (American Diagnostica Inc, Greenwich, Conn.) was used to determine TF concentration in each sample. The ELISA was carried out according to manufacturer's procedure.

[3] = system: Vascular Endothelial Growth Factor (VEGF) production by human melanoma cell line RPMI-7951; experiment: VEGF ELISA, RPMI-7951; details: for VEGF ELISA / VEGF: RPMI-7951; for VEGF ELISA: DMSO control 3713
[4] = system: Tissue Factor (TF) production by human breast cancer cell line MDA-MB-231; experiment: TF ELISA, MDA-MB-231; format: cell-based; details: 0.5 μM
Description: (§3) IMUBIND Tissue Factor ELISA Kit (American Diagnostica Inc, Greenwich, Conn.) was used to determine TF concentration in each sample. The ELISA was carried out according to manufacturer's procedure.

[5] = system: Vascular Endothelial Growth Factor (VEGF) production by human prostate cancer cell line PC-3; experiment: VEGF ELISA, PC-3; format: cell-based
[6] = system: Vascular Endothelial Growth Factor (VEGF) production by human prostate cancer cell line DU-145; experiment: VEGF ELISA, DU-145; format: cell-based
[7] = system: Human tumor and endothelial cell lines; experiment: Emory Laboratory Cell Screen, mean over cell lines; format: cell-based; details: Homo sapiens, Endothelial cell; Mean over the Emory cell lines; 72 hours; read-out: Median Growth Inhibitory Concentration (GI50), Mean
Description: as §1

[8] = system: RPMI-7951 human melanoma; experiment: Neutral Red Assay, cell viability, RPMI-7951; details: Homo sapiens
[9] = system: RPMI 7951; experiment: Emory Laboratory Cell Screen, Neutral Red, RPMI 7951; format: cell-based, human; details: Homo sapiens, RPMI 7951, Melanoma, 72 hours, read-out: Median Growth Inhibitory Concentration (GI50)
Description: as §1

[10] = system: Tissue Factor (TF) production by human melanoma cell line RPMI-7951; experiment: TF ELISA, RPMI-7951; format: cell-based
Description: as §3

[11] = system: HUVECS; experiment: Emory Laboratory Cell Screen, Neutral Red, HUVECS; format: cell-based, human; details: Homo sapiens, HUVEC, 72 hours, read-out: Median Growth Inhibitory Concentration (GI50)
Description: as §1

[12] = system: MDA-MB-435; experiment: Emory Laboratory Cell Screen, Neutral Red, MDA-MB-435; format: cell-based, human; details: Homo sapiens, MDA-MB-435, Breast Cancer, 72 hours, read-out: Median Growth Inhibitory Concentration (GI50)
Description: as §1

[13] = system: Tissue Factor (TF) production by human prostate cancer cell line DU-145; experiment: TF ELISA, DU-145; format: cell-based; details: 20 μM
Description: as §2

[14] = Homo sapiens, RPMI-7951, 72 h, read-out: VEGF
[15] = Table 4, 20 μM, mean of triplicate and S.D.
[16] = RPMI-7951, 72 h, read-out: Neutral Red Uptake, %
[17] = RPMI-7951, read-out: Cell Viability

O=C(C=Cc1ccccc1O)C=Cc1ccccc1O [EF2, 1,5-Bis(2-hydroxyphenyl)penta-1,4-dien-3-one]
GI50 [1]: 1500 nM | TF (% of DMSO) ([2]; DMSO = 100%): (36%) | TF ([2]; mean of triplicate and S.D., DMSO 203 ± 6): 73 ± 10 pg/mL | activity at 5 µM [3, 14]: 36% | activity at 20 µM [3, 14]: 0% | VEGF ELISA ([3]; 5 μM): 1295 pg/ml/well | VEGF ([3]; 5 μM, DMSO control 4197 (EF-25: 1045)): 1522 pg/mL | VEGF ELISA ([3]; 20 μM): 84 pg/ml/well | VEGF ([3]; 20 μM, DMSO control 4197): 0 pg/mL | TF ([4]; DMSO = 100): 82% | TF ([4]; DMSO control 45753): 37697 pg/mL | VEGF (% of DMSO) ([5]; 20 μM, DMSO = 100%): (1%) | VEGF ([5]; 20 μM, mean of triplicate and S.D., DMSO 2103 ± 100): 26 ± 44 pg/mL | VEGF ([5]; Table 4, 20 μM, DMSO = 100): 1% | VEGF [5, 15]: 26 ± 44 pg/mL | VEGF (% of DMSO) ([6]; 20 μM, DMSO = 100%): (40%) | VEGF ([6]; 20 μM, mean of triplicate and S.D., DMSO 18760 ± 2633): 7516 ± 1915 pg/mL | VEGF ([6]; Table 4, 20 μM, DMSO = 100): 40% | VEGF [6, 15]: 7516 ± 1915 pg/mL | GI50 [7]: 1800 nM | viability at 5 µM [8, 16]: 46% | viability at 20 µM [8, 16]: 7% | viability at 5 µM [8, 17]: 68% | viability at 20 µM [8, 17]: 42% | GI50 [9]: 800 nM | TF ([10]; 5 μM, DMSO = 100): 82% | TF ELISA ([10]; 5 μM, DMSO control 7054): 1009 pg/ml/well | TF ([10]; 20 μM, DMSO = 100): 14% | TF ([10]; Table 5, 5 μM, DMSO control 7054): 5780 pg/mL | TF ([10]; Table 5, 20 μM, DMSO control 7054): 1009 pg/mL | GI50 [11]: 1700 nM | GI50 [12]: 3300 nM | TF (% of DMSO) ([13]; DMSO = 100%): (72%) | TF ([13]; mean of triplicate and S.D., DMSO 7699 ± 406): 5540 ± 364 pg/mL
